Values quoted from earlier work in patent publication US20200138710A1, “COMPOSITIONS WITH PERMEATION ENHANCERS FOR DRUG DELIVERY” (Children's Medical Center Corporation, priority 2016, published 2020).

| Log P | SMILES |
| --- | --- |
| −0.16 | CO/N=C(\C(=O)N[C@@H]1C(=O)N2C(C(=O)O)=C(COC(N)=O)CS[C@H]12)c1ccco1 [Cefuroxime] |
| 4.02 | CC[C@H]1OC(=O)[C@H](C)[C@@H](O[C@H]2C[C@@](C)(OC)[C@@H](O)[C@H](C)O2)[C@H](C)[C@@H](O[C@@H]2O[C@H](C)C[C@H](N(C)C)[C@H]2O)[C@](C)(O)C[C@@H](C)CN(C)[C@H](C)[C@@H](O)[C@]1(C)O [Azithromycin] |
| −1.47 | CO/N=C(\C(=O)N[C@@H]1C(=O)N2C(C(=O)O)=C(CSc3nc(=O)c(=O)[nH]n3C)CS[C@H]12)c1csc(N)n1 [Ceftriaxone] |
